Measurements published in US20050282755A1, “Compositions having antimicrobial activity and uses thereof” (priority 2004, published 2005).

Key:
human red blood cells = assay type: cell-based; settings: red cells of human, 100 Micromolar
Procedure: Hemoglobin-release assays with human red blood cells (RBC) were performed to determine the hemolytic activity of granulysin peptides. Human RBCs (San Diego Blood Bank, San Diego, Calif.) were washed three times in PBS buffer (8 mM Na2HPO4, 1.5 mM KH2PO4, 140 mM NaCl and 2.7 mM KCl, pH 7.4), resuspended in PBS to the concentration of 5% (v/v). The RBC were then exposed to different peptide compositions at various concentrations (100-6.25 micromolar) and incubated at 37° C. for 60 minutes in a total volume of 120 microliters. Every experiment included a negative control without peptide and maximum control treated with 5% TX-100 for complete hemoglobin release. Samples were centrifuged for 1 minute at 13,000 g to remove debris and intact cells. The hemoglobin-containing supernatant was removed and transferred to a microwell plate. Hemoglobin release was quantified at A540 using a Versamax plate reader (Molecular Devices). The degree of hemolysis is expressed as percentage of hemolysis compared to the […], using the following formula: % hemolysis=(sample−neg. control)/(max. control−neg. control)×100.

P. acnes, ATCC 6919 = experiment: Broth microdilution assay for P. acnes MBC, Table 4B; assay type: cell-based, Propionibacterium acnes; settings: 3 log or greater reduction in CFU/milliliter after 2.5 hours
Excerpt: The strain of P. acnes was purchased from ATCC (strain #6919) (Manassas, Va.). […] HeLa cells were purchased from ATCC (CCL2). Tryptic soy broth (TSB), Brucella broth, reinforced Clostridial broth and agar were purchased from Becton & Dickinson (distributed by VWR, West Chester, Pa.). All plastic consumables were purchased from VWR (West Chester, Pa.). Chemicals were purchased from Sigma Aldrich (St. Louis, Mo.). DMEM, antibiotics and cell culture supplements were purchased from Invitrogen (Carlsbad, Calif.), fetal calf serum (FCS) was purchased from Hyclone (Logan, Utah). […] For propagation in liquid culture individual colonies were inoculated in […] of TSB broth for 16 hours at 37° C. under constant shaking. P. acnes was grown on Brucella broth blood agar plates (supplemented with 5% defibrinated sheep blood, […] hemin and […] vitamin K) under anaerobic conditions (GasPak system, Becton & Dickinson) for 96 hours at 37° C. For propagation in liquid culture individual colonies were inoculated in […] of reinforced Clostridial broth under anaerobic conditions for 72 hours at 37° C. […] The minimum bactericidal concentration (MBC) of peptide compositions for P. acnes was determined in a microdilution assay. […] The appearance of bacterial colonies was evaluated and documented.

`CSCC[C@@H](NC(=O)[C@@H](Cc1ccccc1)NC(=O)[C@@H](CC(N)=O)NC(=O)[C@@H](CCCNC(=N)N)NC(=O)[C@@H](CO)NC(=O)[C@@H](Cc1c[nH]c2ccccc12)NC(=O)[C@@H](CC(=O)O)NC(=O)[C@@H](CCCNC(=N)N)NC(=O)[C@@H](Cc1c[nH]c2ccccc12)NC(=O)[C@@H](CCCNC(=N)N)NC(=O)[C@@H](CO)NC(=O)[C@@H](CCCNC(=N)N)NC(=O)CNC(=O)[C@H](NC(=O)[C@@H](CCCNC(=N)N)NC(=O)[C@@H](CO)NC(=O)[C@H](NC(=O)[C@@H](CCCNC(=N)N)NC(=O)[C@H](NC(C)=O)[C@H](C)O)C(C)C)[C@H](C)O)C(=O)N[C@H](CCCNC(=N)N)C(=O)N[C@H](C)C(=O)N[C@H](C)C(N)=O` [Peptide 30, Ac-trvsrtgrsrwrdwsrnfmraa-NH2] was tested, and the “Hemolytic effect on human red blood cells” value (human red blood cells) was 0% and the “Minimum bactericidal concentration (MBC) for P. acnes” value (P. acnes, ATCC 6919) was 8 micromolar units.
